# Experimental data taken from PubChem BioAssay (NCI).
#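 Exposure lasted 48 hours, with cells grown in 96-well plates and compounds tested at five concentrations. Definition used: TGI = concentration required for complete inhibition of growth.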
# Key:
# Test in all cases: NCI anticancer screen, dose series, 48 h
# IGROV1 ovarian = tested on: IGROV1 ovarian
# SF-539 CNS = tested on: SF-539 CNS
# TK-10 renal = tested on: TK-10 renal
# MDA-MB-231 breast = tested on: MDA-MB-231 breast
# DU-145 prostate = tested on: DU-145 prostate
# SK-OV-3 ovarian = tested on: SK-OV-3 ovarian
# HL-60(TB) leukemia = tested on: HL-60(TB) leukemia
# SK-MEL-2 melanoma = tested on: SK-MEL-2 melanoma
# HCC-2998 colon = tested on: HCC-2998 colon
# SW-620 colon = tested on: SW-620 colon
# COLO 205 colon = tested on: COLO 205 colon
# RPMI-8226 leukemia = tested on: RPMI-8226 leukemia
# MDA-N = tested on: MDA-N
# OVCAR-3 ovarian = tested on: OVCAR-3 ovarian
# SF-295 CNS = tested on: SF-295 CNS
# LOX IMVI melanoma = tested on: LOX IMVI melanoma
# OVCAR-5 ovarian = tested on: OVCAR-5 ovarian
# UO-31 renal = tested on: UO-31 renal
# MALME-3M melanoma = tested on: MALME-3M melanoma
# SR leukemia = tested on: SR leukemia
# OVCAR-8 ovarian = tested on: OVCAR-8 ovarian
# A498 renal = tested on: A498 renal
# KM20L2 colon = tested on: KM20L2 colon
# NCI-H460 lung = tested on: NCI-H460 lung
# MCF7 breast = tested on: MCF7 breast
# K-562 leukemia = tested on: K-562 leukemia
# ACHN renal = tested on: ACHN renal
# T-47D breast = tested on: T-47D breast
# A549 NSCLC = tested on: A549 NSCLC
# MDA-MB-435 = tested on: MDA-MB-435
# CAKI-1 renal = tested on: CAKI-1 renal
# SN12C renal = tested on: SN12C renal
# PC-3 prostate = tested on: PC-3 prostate
# CCRF-CEM leukemia = tested on: CCRF-CEM leukemia
# HCT-15 colon = tested on: HCT-15 colon
# HOP-92 NSCLC = tested on: HOP-92 NSCLC
# MOLT-4 leukemia = tested on: MOLT-4 leukemia
# SK-MEL-5 melanoma = tested on: SK-MEL-5 melanoma
# 786-0 renal = tested on: 786-0 renal
# DLD-1 colon = tested on: DLD-1 colon
# NCI-H226 lung = tested on: NCI-H226 lung
# U251 CNS = tested on: U251 CNS
# DMS 114 small cell lung = tested on: DMS 114 small cell lung
# NCI-H522 lung = tested on: NCI-H522 lung
# HOP-62 NSCLC = tested on: HOP-62 NSCLC
# OVCAR-4 ovarian = tested on: OVCAR-4 ovarian
# HCT-116 colon = tested on: HCT-116 colon
# EKVX NSCLC = tested on: EKVX NSCLC
# HOP-18 NSCLC = tested on: HOP-18 NSCLC
# SNB-75 CNS = tested on: SNB-75 CNS
# RXF 393 renal = tested on: RXF 393 renal
# M14 melanoma = tested on: M14 melanoma
# SNB-19 CNS = tested on: SNB-19 CNS
# UACC-257 melanoma = tested on: UACC-257 melanoma
# HT29 colon = tested on: HT29 colon
# SK-MEL-28 melanoma = tested on: SK-MEL-28 melanoma
# DMS 273 small cell lung = tested on: DMS 273 small cell lung
# SNB-78 CNS = tested on: SNB-78 CNS
# KM12 colon = tested on: KM12 colon
# M19-MEL melanoma = tested on: M19-MEL melanoma
# NCI-H23 lung = tested on: NCI-H23 lung
# UACC-62 melanoma = tested on: UACC-62 melanoma
# SF-268 CNS = tested on: SF-268 CNS
# XF 498 CNS = tested on: XF 498 CNS
smiles,measurement,setting,value
CCCCCCC(=O)OC[n+]1ccc2c(C)c3[nH]c4ccc(OC)cc4c3c(C)c2c1,TGI,IGROV1 ovarian,3.83 µM
same,TGI,SF-539 CNS,1.67 µM
same,TGI,TK-10 renal,10.4 µM
same,TGI,MDA-MB-231 breast,2.36 µM
same,TGI,DU-145 prostate,3.59 µM
same,TGI,SK-OV-3 ovarian,3.83 µM
same,TGI,HL-60(TB) leukemia,1.7 µM
same,TGI,SK-MEL-2 melanoma,9.35 µM
same,TGI,HCC-2998 colon,2.68 µM
same,TGI,SW-620 colon,1.78 µM
same,TGI,COLO 205 colon,1.34 µM
same,TGI,RPMI-8226 leukemia,2.1 µM
same,TGI,MDA-N,1.59 µM
same,TGI,OVCAR-3 ovarian,4.84 µM
same,TGI,SF-295 CNS,1.59 µM
same,TGI,LOX IMVI melanoma,1.5 µM
same,TGI,OVCAR-5 ovarian,2.75 µM
same,TGI,UO-31 renal,5.48 µM
same,TGI,MALME-3M melanoma,14.2 µM
same,TGI,SR leukemia,3.46 µM
same,TGI,OVCAR-8 ovarian,2.12 µM
same,TGI,A498 renal,2.02 µM
same,TGI,KM20L2 colon,5.32 µM
same,TGI,NCI-H460 lung,1.02 µM
same,TGI,MCF7 breast,1.75 µM
same,TGI,K-562 leukemia,1.31 µM
same,TGI,ACHN renal,4.88 µM
same,TGI,T-47D breast,11.5 µM
same,TGI,A549 NSCLC,1.88 µM
same,TGI,MDA-MB-435,1.79 µM
same,TGI,CAKI-1 renal,6.69 µM
same,TGI,SN12C renal,1.91 µM
same,TGI,PC-3 prostate,1.51 µM
same,TGI,CCRF-CEM leukemia,1.63 µM
same,TGI,HCT-15 colon,1.24 µM
same,TGI,HOP-92 NSCLC,3.49 µM
O=C(O)c1ccccc1C(=O)c1ccco1,TGI,IGROV1 ovarian,> 100 µM
same,TGI,SF-539 CNS,> 100 µM
same,TGI,MOLT-4 leukemia,> 100 µM
same,TGI,TK-10 renal,> 100 µM
same,TGI,SK-MEL-5 melanoma,> 100 µM
same,TGI,786-0 renal,> 100 µM
same,TGI,HL-60(TB) leukemia,> 100 µM
same,TGI,DLD-1 colon,> 100 µM
same,TGI,NCI-H226 lung,> 100 µM
same,TGI,SK-MEL-2 melanoma,> 100 µM
same,TGI,U251 CNS,> 100 µM
same,TGI,DMS 114 small cell lung,> 100 µM
same,TGI,NCI-H522 lung,> 100 µM
same,TGI,HCC-2998 colon,> 100 µM
same,TGI,HOP-62 NSCLC,> 100 µM
same,TGI,SW-620 colon,> 100 µM
same,TGI,OVCAR-4 ovarian,> 100 µM
same,TGI,COLO 205 colon,> 100 µM
same,TGI,HCT-116 colon,> 100 µM
same,TGI,EKVX NSCLC,> 100 µM
same,TGI,HOP-18 NSCLC,> 100 µM
same,TGI,SNB-75 CNS,> 100 µM
same,TGI,RXF 393 renal,> 100 µM
same,TGI,OVCAR-3 ovarian,> 100 µM
same,TGI,M14 melanoma,> 100 µM
same,TGI,SF-295 CNS,> 100 µM
same,TGI,SNB-19 CNS,> 100 µM
same,TGI,UACC-257 melanoma,> 100 µM
same,TGI,LOX IMVI melanoma,> 100 µM
same,TGI,OVCAR-5 ovarian,> 100 µM
same,TGI,UO-31 renal,> 100 µM
same,TGI,MALME-3M melanoma,> 100 µM
same,TGI,SR leukemia,> 100 µM
same,TGI,OVCAR-8 ovarian,> 100 µM
same,TGI,A498 renal,> 100 µM
same,TGI,KM20L2 colon,> 100 µM
same,TGI,NCI-H460 lung,> 100 µM
same,TGI,K-562 leukemia,> 100 µM
same,TGI,HT29 colon,> 100 µM
same,TGI,ACHN renal,> 100 µM
same,TGI,A549 NSCLC,> 100 µM
same,TGI,CAKI-1 renal,> 100 µM
same,TGI,SK-MEL-28 melanoma,> 100 µM
same,TGI,SN12C renal,> 100 µM
same,TGI,DMS 273 small cell lung,> 100 µM
same,TGI,SNB-78 CNS,> 100 µM
same,TGI,KM12 colon,> 100 µM
same,TGI,CCRF-CEM leukemia,> 100 µM
same,TGI,M19-MEL melanoma,> 100 µM
same,TGI,NCI-H23 lung,> 100 µM
same,TGI,HCT-15 colon,> 100 µM
same,TGI,HOP-92 NSCLC,> 100 µM
same,TGI,UACC-62 melanoma,> 100 µM
same,TGI,SF-268 CNS,> 100 µM
same,TGI,XF 498 CNS,> 100 µM
